Reference: PubChem BioAssay AID1963451 (Molecular Pharmacology Branch, DTP, NCI, 2024)
Several values for one entry are separate records, joined by “and”; a condition that tells them apart may be missing. Equal entries are not always repeated.

Tested on: 521955-158-R6-J3-PDC complex spheroid growth, % test/control
Assay: Anticancer human tumor 521955-158-R6-J3-PDC patient-derived pancreatic carcinoma cell line growth inhibition [Asc]
Details: for viability, T/C: stronger effect = lower value
Experimental: Multicellular complex tumor spheroid response to apoptosis pathway targeting inhibitors Alrizomadlin, Pelcitoclax, and Dasminapant in combination with a variety of drugs and investigational agents in selected tumor cell lines
The MDM2 inhibitor alrizomadlin, the Bcl-2/Bcl-xL inhibitor pelcitoclax, and the IAPs inhibitor dasminapant were evaluated both individually and in combination with standard of care and investigational anticancer small molecules within a complex spheroid model of solid tumors. . Complex spheroids include a stromal component modeled by human endothelial cells (HUVEC) and fibroblasts modeled by human mesenchymal stem cells (MSCs). The concentration ranges selected for each drug and investigational agent were based upon clinically achievable concentrations if the clinical Cmax of the agent was known.
Compounds. The drugs and investigational agents: alrizomadlin (APG-115; NSC831270), pelcitoclax (APG-1252; NSC835773), dasminapant (APG-1387;NSC834197), TAK-243 (NSC785004), copanlisib (NSC809693), olaparib (NSC753686), talazoparib (NSC767125), cobimetinib (NSC 768068), eltanexor (KPT-8602, NSC 794443), abemaciclib (NSC 768073), sotorasib (NSC818433), adagrasib (NSC 831453), MRTX-1133 (NSC 836407), Iadademestat (ORY1001, NSC 806812), and RMC-4630 (NSC839698), were obtained from the NCI Developmental Therapeutics Program Chemical Repository. The FDA-approved anticancer drug set is available from the Developmental Therapeutics Program at https://dtp.cancer.gov/organization/dscb/obtaining/available plates.htm. […] The stock solutions were prepared in dimethyl sulfoxide (DMSO, Sigma-Aldrich, St. Louis, MO, cat. D2650) at 800-fold the tested concentration and stored at -70 degrees C prior to their use. All drugs and investigational agents were tested over a range starting from a high concentration at or near the clinical Cmax and decreasing in half-log increments. If the clinical Cmax for an agent had not been determined, the highest concentration tested was 10 microM.
The patient-derived cancer (PDC) cell lines include five colon adenocarcinomas: 186277-243-T-J2-PDC, 616215-338-R-J1-PDC, 439559-082-T-J2-PDC, 463943-066-T-J2-PDC, and 519858-162-T-J1-PDC; three pancreatic carcinomas: 323965-272-R-J2-PDC, 521955-158-R6-J3-PDC, and 521955-158-R2-J5-PDC; two uterine sarcomas: 327498-152-R-J2-PDC and 993429-296-R-J1-PDC; two rhabdomyosarcomas: 755483-174-R-J1-PDC and 772245-204-R-J1-PDC; two soft tissue sarcomas: 126254-015-R-J1-PDC and 494315-158-R-J1-PDC; two malignant fibrous histiocytomas: 317291-083-R-J1-PDC and 596521-263-R-J1-PDC; two breast carcinomas: 171881-019-R-J1-PDC and 885512-296-R-J2-PDC; and one ovarian carcinoma: 6556581-035-R-J-PDC were obtained from the NCI PDMR, (https://pdmr.cancer.gov). The established cell lines HSSY-2 synovial sarcoma (RRID:CVCL 8719), SYO-1 synovial sarcoma (RRID:CVCL_7146), MPNST malignant peripheral neural sheath tumor were obtained from the Sloan Kettering Institute. The following established cell lines were purchased from the American Type Culture Collection (ATCC, Manassas, VA), Sor the received from the NCI repository:, PANC-1 pancreatic carcinoma (CRL-1469, RRID:CVCL_0480), OVCAR-5 ovarian carcinoma (RRID:CVCL_1628), OVCAR-8 ovarian carcinoma (RRID:CVCL_1629), , MCF-7 breast carcinoma (CRL-12584, RRID:CVCL_0031), MDA-MB-231 breast carcinoma (CRL-12532, RRID:CVCL_0062), NCI-H1876 small cell lung carcinoma (CRL-5902, RRID:CVCL_1503), NCI-H510A small cell lung carcinoma (HTB-184, RRID:CVCL_1565), NCI-H1417 (CRL-5869, RRID:CVCL_1469), and NCI-H196 small cell lung carcinoma (CRL-5823, RRID:CVCL_1509). Dr. Peter Houghton (Greehey Children's Cancer Research Institute, University of Texas Health Science Center, San Antonio, TX) provided Rh-18 rhabdomyosarcoma (RRID:CVCL_1659). Pooled donor human umbilical vein endothelial cells (HUVEC, Lonza, cat. CC-2519) and human mesenchymal stem cells (hMSC, Lonza, cat. PT-2501) were purchased from Lonza (Walkersville, MD).
Cell Culture. […]

[1] = curve of first compound, second compound 0.00949 µM
[2] = curve of first compound, second compound 0.03 µM
[3] = curve of first compound, second compound 0.0949 µM
[4] = curve of first compound, second compound 0.3 µM
[5] = curve of first compound, second compound 0.949 µM
[6] = curve of first compound, second compound 3 µM
[7] = second compound 0.00949 µM, first compound 0.0316 µM
[8] = second compound 0.00949 µM, first compound 0.1 µM
[9] = second compound 0.00949 µM, first compound 0.316 µM
[10] = second compound 0.00949 µM, first compound 1 µM
[11] = second compound 0.03 µM, first compound 0.0316 µM
[12] = second compound 0.03 µM, first compound 0.1 µM
[13] = second compound 0.03 µM, first compound 0.316 µM
[14] = second compound 0.03 µM, first compound 1 µM
[15] = second compound 0.0949 µM, first compound 0.0316 µM
[16] = second compound 0.0949 µM, first compound 0.1 µM
[17] = second compound 0.0949 µM, first compound 0.316 µM
[18] = second compound 0.0949 µM, first compound 1 µM
[19] = second compound 0.3 µM, first compound 0.0316 µM
[20] = second compound 0.3 µM, first compound 0.1 µM
[21] = second compound 0.3 µM, first compound 0.316 µM
[22] = second compound 0.3 µM, first compound 1 µM
[23] = second compound 0.949 µM, first compound 0.0316 µM
[24] = second compound 0.949 µM, first compound 0.1 µM
[25] = second compound 0.949 µM, first compound 0.316 µM
[26] = second compound 0.949 µM, first compound 1 µM
[27] = second compound 3 µM, first compound 0.0316 µM
[28] = second compound 3 µM, first compound 0.1 µM
[29] = second compound 3 µM, first compound 0.316 µM
[30] = second compound 3 µM, first compound 1 µM
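Note: spheroids exposed to compounds for 7 days.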
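Throughout, for viability, T/C: 100% = DMSO vehicle control wells.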

## CNC(C)C(=O)NC1CN(S(=O)(=O)c2cccc(S(=O)(=O)N3CCC4CCC(C(=O)NC(c5ccccc5)c5ccccc5)N4C(=O)C(NC(=O)C(C)NC)C3)c2)CCC2CCC(C(=O)NC(c3ccccc3)c3ccccc3)N2C1=O (stereo unspecified) + CCN1C(C(=O)NC23CCC(C(=O)O)(CC2)CC3)C(c2cccc(Cl)c2F)C2(C(=O)Nc3cc(Cl)ccc32)C12CCCCC2
[1]
  IC50: > 1 µM
[2]
  IC50: > 1 µM
[3]
  IC50: > 1 µM
[4]
  IC50: > 1 µM
[5]
  IC50: > 1 µM
[6]
  IC50: > 1 µM
Second compound 0.00949 µM, first compound 0.00316 µM
  viability, T/C: 110%
Second compound 0.00949 µM, first compound 0.01 µM
  viability, T/C: 95.2%
[7]
  viability, T/C: 83.7%
[8]
  viability, T/C: 89.8%
[9]
  viability, T/C: 89.7%
[10]
  viability, T/C: 89.7%
Second compound 0.03 µM, first compound 0.00316 µM
  viability, T/C: 91.8%
Second compound 0.03 µM, first compound 0.01 µM
  viability, T/C: 96%
[11]
  viability, T/C: 113%
[12]
  viability, T/C: 101%
[13]
  viability, T/C: 69%
[14]
  viability, T/C: 81.5%
Second compound 0.0949 µM, first compound 0.00316 µM
  viability, T/C: 102%
Second compound 0.0949 µM, first compound 0.01 µM
  viability, T/C: 89.9%
[15]
  viability, T/C: 92.3%
[16]
  viability, T/C: 86.9%
[17]
  viability, T/C: 76.9%
[18]
  viability, T/C: 86.2%
Second compound 0.3 µM, first compound 0.00316 µM
  viability, T/C: 96.2%
Second compound 0.3 µM, first compound 0.01 µM
  viability, T/C: 111%
[19]
  viability, T/C: 100%
[20]
  viability, T/C: 99.8%
[21]
  viability, T/C: 93.5%
[22]
  viability, T/C: 95%
Second compound 0.949 µM, first compound 0.00316 µM
  viability, T/C: 106%
Second compound 0.949 µM, first compound 0.01 µM
  viability, T/C: 85.1%
[23]
  viability, T/C: 93.7%
[24]
  viability, T/C: 101%
[25]
  viability, T/C: 96.8%
[26]
  viability, T/C: 109%
Second compound 3 µM, first compound 0.00316 µM
  viability, T/C: 95%
Second compound 3 µM, first compound 0.01 µM
  viability, T/C: 96%
[27]
  viability, T/C: 108%
[28]
  viability, T/C: 86.2%
[29]
  viability, T/C: 96.6%
[30]
  viability, T/C: 80.8%

## C=CC(=O)N1CCN(c2nc(=O)n(-c3c(C)ccnc3C(C)C)c3nc(-c4c(O)cccc4F)c(F)cc23)C(C)C1 (stereo unspecified)
Compound 0.0316 µM
  viability, T/C: 104% and 94.7% and 96.5%
Compound 0.1 µM
  viability, T/C: 105% and 107% and 89.4%
Compound 0.316 µM
  viability, T/C: 95.1% and 92% and 95.3%
Compound 1 µM
  viability, T/C: 111% and 100% and 122%
Compound 3.16 µM
  viability, T/C: 112% and 125% and 121%
Compound 10 µM
  viability, T/C: 93.7% and 124% and 118%
Curve of compound
  IC50: > 10 µM

## C=CC(=O)N1CCN(c2nc(=O)n(-c3c(C)ccnc3C(C)C)c3nc(-c4c(O)cccc4F)c(F)cc23)C(C)C1 (stereo unspecified) + CCN1C(C(=O)NC23CCC(C(=O)O)(CC2)CC3)C(c2cccc(Cl)c2F)C2(C(=O)Nc3cc(Cl)ccc32)C12CCCCC2
[1]
  IC50: > 10 µM
[2]
  IC50: > 10 µM
[3]
  IC50: > 10 µM
[4]
  IC50: > 10 µM
[5]
  IC50: > 10 µM
[6]
  IC50: > 10 µM
[7]
  viability, T/C: 121%
[8]
  viability, T/C: 111%
[9]
  viability, T/C: 107%
[10]
  viability, T/C: 106%
Second compound 0.00949 µM, first compound 3.16 µM
  viability, T/C: 114%
Second compound 0.00949 µM, first compound 10 µM
  viability, T/C: 109%
[11]
  viability, T/C: 94.3%
[12]
  viability, T/C: 113%
[13]
  viability, T/C: 103%
[14]
  viability, T/C: 114%
Second compound 0.03 µM, first compound 3.16 µM
  viability, T/C: 101%
Second compound 0.03 µM, first compound 10 µM
  viability, T/C: 95.7%
[15]
  viability, T/C: 119%
[16]
  viability, T/C: 91.2%
[17]
  viability, T/C: 118%
[18]
  viability, T/C: 103%
Second compound 0.0949 µM, first compound 3.16 µM
  viability, T/C: 108%
Second compound 0.0949 µM, first compound 10 µM
  viability, T/C: 101%
[19]
  viability, T/C: 101%
[20]
  viability, T/C: 115%
[21]
  viability, T/C: 107%
[22]
  viability, T/C: 112%
Second compound 0.3 µM, first compound 3.16 µM
  viability, T/C: 109%
Second compound 0.3 µM, first compound 10 µM
  viability, T/C: 103%
[23]
  viability, T/C: 108%
[24]
  viability, T/C: 105%
[25]
  viability, T/C: 102%
[26]
  viability, T/C: 107%
Second compound 0.949 µM, first compound 3.16 µM
  viability, T/C: 121%
Second compound 0.949 µM, first compound 10 µM
  viability, T/C: 92.2%
[27]
  viability, T/C: 91.8%
[28]
  viability, T/C: 95.8%
[29]
  viability, T/C: 97.7%
[30]
  viability, T/C: 92.5%
Second compound 3 µM, first compound 3.16 µM
  viability, T/C: 102%
Second compound 3 µM, first compound 10 µM
  viability, T/C: 94.3%
